# Results published in patent US8563746B2, “Cyclic benzimidazole derivatives useful as anti-diabetic agents” (Merck Sharp & Dohme Corp, priority 2008, dated 2013).
# Where two headings read alike, the source gives them in different places.
# Molecular target: recombinant human AMPK complex 1 (containing α1β1γ1) (Homo sapiens, UniProt Q13131+Q9Y478)
# Experiment: In vitro AMPK activation assay ([…])
# Format: biochemical
# Details: for Emax: basal activity subtracted, expressed as % maximum AMP activation
# Procedure: The recombinant human AMPK complex 1 (containing α1β1γ1) was obtained from baculovirus expression system. Recombinant viruses were generated by cotransfection of AMPK/pBacPak9 clones with Baculogold baculovirus DNA (Pharmingen) in spodoptera frugiperda 21 cells according to the manufacturer's instructions. Each round of virus amplification was performed for 5 days in Grace's medium containing 10% serum. Virus that had been subjected to three rounds of amplification was used for all protein production procedures. To express the AMPK complex, sf21 cells were adapted to serum free medium (SF900 II, Invitrogen) by sequential dilution from serum containing stocks into SF900II medium and maintained in shaker flasks at 90 rpm at 27° C. The recombinant AMPK enzyme complex was produced by triple infection, one recombinant virus for each of the subunits, in sf21 cells under serum free conditions. Cells were infected in log phase, 1×10^6 cells/ml, at a multiplicity of infection of ˜5. Cells were harvested by centrifugation at 10,000×g for 15 minutes after 72 hours of infection with viruses. The insect cell pellet from 2 liters of culture was resuspended in 50 ml lysis buffer (20 mM Tris-HCl, 50 mM NaCl, 50 mM NaF, 30 mM Na PPi, 0.25 M sucrose, 10 mM ZnCl2, 2 mM DTT, 0.4 mg/ml digitonin) and subjected to two cycles of freeze-thaw lysis in a dry-ice ethanol bath. Insoluble material was removed by centrifugation at 10,000×g and the supernatant was fractionated with use of polyethylene glycol (PEG). The protein fraction precipitating between 2.5 and 6% PEG was used for further purification using a Blue-Sepharose step (Zhou et al, J. Clin. Invest. 108, 1167-1174, 2001).
# The total in vitro AMPK activation assay volume is 50 μl in a 96-well plate. The reaction mixture contained 100 μM ATP (0.5 μCi ^33P-ATP per reaction), and 50 μM SAMS ([…]) in a buffer (20 mM HEPES, pH 7.0, 5 mM MgCl2, 0.01% Brij35). The reaction was initiated with addition of the enzyme. After 30-minute incubation at 30° C., the reaction was stopped by addition of 80 μl 1% H3PO4. Aliquots (100 μl) were transferred to 96-well MultiScreen plates (MAPHNOB50; Millipore Corp., Bedford, Mass., USA). The plate was washed three times with 1% H3PO4 followed by detection in a Top-count. The counts per minute from the basal activity (the reaction without activator) was subtracted from each well and the data were expressed as % maximum AMP activation followed by EC50 calculation.
# [1] = recombinant human AMPK complex 1 (α1β1γ1)
# Chain of recombinant human AMPK complex 1 (containing α1β1γ1) (Q13131 whole entry): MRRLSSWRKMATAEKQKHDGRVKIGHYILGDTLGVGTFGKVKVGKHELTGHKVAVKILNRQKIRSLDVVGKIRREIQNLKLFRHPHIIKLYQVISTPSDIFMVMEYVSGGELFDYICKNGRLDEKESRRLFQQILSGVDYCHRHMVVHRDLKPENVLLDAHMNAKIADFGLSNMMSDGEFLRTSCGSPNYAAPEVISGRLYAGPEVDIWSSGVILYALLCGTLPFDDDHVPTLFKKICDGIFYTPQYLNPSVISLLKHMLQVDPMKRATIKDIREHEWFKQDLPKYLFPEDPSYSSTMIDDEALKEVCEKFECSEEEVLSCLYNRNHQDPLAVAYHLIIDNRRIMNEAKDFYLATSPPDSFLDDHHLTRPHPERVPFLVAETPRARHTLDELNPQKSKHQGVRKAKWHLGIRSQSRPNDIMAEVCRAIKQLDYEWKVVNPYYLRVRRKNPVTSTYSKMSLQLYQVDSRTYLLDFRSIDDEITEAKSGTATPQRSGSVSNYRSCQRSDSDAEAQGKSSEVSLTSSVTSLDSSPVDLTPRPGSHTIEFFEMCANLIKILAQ
# Chain of recombinant human AMPK complex 1 (containing α1β1γ1) (Q9Y478 whole entry): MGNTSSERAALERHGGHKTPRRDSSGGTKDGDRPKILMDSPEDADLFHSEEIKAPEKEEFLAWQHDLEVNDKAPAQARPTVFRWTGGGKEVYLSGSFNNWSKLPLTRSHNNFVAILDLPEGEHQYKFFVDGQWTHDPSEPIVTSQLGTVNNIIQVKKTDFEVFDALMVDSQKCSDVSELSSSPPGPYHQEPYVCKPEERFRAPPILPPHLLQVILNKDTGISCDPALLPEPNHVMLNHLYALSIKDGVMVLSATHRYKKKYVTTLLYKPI
# Chain of recombinant human AMPK complex 1 (containing α1β1γ1) (P54619 whole entry partner): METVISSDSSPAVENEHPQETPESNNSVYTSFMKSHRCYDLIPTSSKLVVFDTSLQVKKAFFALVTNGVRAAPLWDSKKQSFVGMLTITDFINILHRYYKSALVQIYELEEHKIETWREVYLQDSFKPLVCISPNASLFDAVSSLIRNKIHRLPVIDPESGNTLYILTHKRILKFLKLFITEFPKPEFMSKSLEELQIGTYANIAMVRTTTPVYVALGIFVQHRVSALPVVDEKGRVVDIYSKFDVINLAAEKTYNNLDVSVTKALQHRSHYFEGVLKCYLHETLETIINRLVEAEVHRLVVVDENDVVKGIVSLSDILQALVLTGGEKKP
SMILES,Emax [1],further results
"O=C(O)CSc1nc2cc(C#Cc3ccccc3)c(Cl)cc2[nH]1 [Example 1, (6-Chloro-5-phenylethynyl-1H-benzoimidazol-2-ylsulfanyl)-acetic acid]",,EC50: 259 nM
"O=C(O)CSc1nc2cc(-c3ccc(-c4ccccc4)cc3)c(Cl)cc2[nH]1 [Example 2, (5-Biphenyl-4-yl-6-chloro-1H-benzoimidazol-2-ylsulfanyl)-acetic acid]",,EC50: 90 nM
"O=C(O)CSc1nc2cc(-c3ccc4c(c3)OCO4)c(Cl)cc2[nH]1 [Example 3, (5-1,3-benzo-dioxol-5-yl-6-chloro-1H-benzimidazol-2-ylsulfanyl)-acetic acid]",> 40%,
"O=C(O)CSc1nc2cc(-c3cccc(F)c3)c(Cl)cc2[nH]1 [Example 4, [6-chloro-5-(3-fluoro-phenyl)-1H-benzimidazol-2-ylsulfanyl]-acetic acid]",> 40%,
"O=C(O)CSc1nc2cc(-c3cc(F)cc(F)c3)c(Cl)cc2[nH]1 [Example 5, [6-chloro-5-(3,5-difluoro-phenyl)-1H-benzimidazol-2-ylsulfanyl]-acetic acid]",> 40%,
"O=C(O)CSc1nc2cc(-c3ccc(-c4ccccc4O)cc3)c(Cl)cc2[nH]1 [Example 6, 2-(6-chloro-5-(2′-hydroxybiphenyl-4-yl)-1H-benzo[d]imidazol-2-ylthio)acetic acid]",,"EC50 (recombinant human AMPK complex 1 (α1β1γ1), read-out: EC50): 13 nM"
"CC(=O)NCc1ccc(-c2cc3nc(SCC(=O)O)[nH]c3cc2Cl)cc1 [Example 7, 2-(6-(4-(acetamido-methyl)phenyl)-5-chloro-1H-benzo[d]-imidazol-2-ylthio)-acetic acid]",> 40%,
"O=C(O)CSc1nc2cc(-c3ccc(O)cc3)c(Cl)cc2[nH]1 [Example 8, 2-(6-chloro-5-(4-hydroxyphenyl)-1H-benzo[d]imidazol-2-ylthio)acetic acid]",> 40%,
"O=C(O)CSc1nc2cc(-c3ccc(CO)cc3)c(Cl)cc2[nH]1 [Example 9, 2-(6-chloro-5-(4-(hydroxymethyl)phenyl)-1H-benzo[d]-imidazol-2-ylthio)-acetic acid]",> 40%,
"Nc1ccccc1C#Cc1cc2nc(SCC(=O)O)[nH]c2cc1Cl [Example 10, 2-(5-((2-amino-phenyl)ethynyl)-6-chloro-1H-benzo[d]-imidazol-2-ylthio)-acetic acid]",> 40%,
"O=C(O)CSc1nc2cc(-c3ccc4cn[nH]c4c3)c(Cl)cc2[nH]1 [Example 11, 2-(6-chloro-5-(1H-indazol-6-yl)-1H-benzo[d]imidazol-2-ylthio)acetic acid]",> 40%,
"COc1ccc(-c2cc3nc(SCC(=O)O)[nH]c3cc2Cl)cn1 [Example 12, 2-(6-chloro-5-(6-methoxypyridin-3-yl)-1H-benzo[d]imidazol-2-ylthio)acetic acid]",> 40%,
"O=C(O)CSc1nc2cc(-c3cc4ccccc4o3)c(Cl)cc2[nH]1 [Example 13, 2-(5-(benzofuran-2-yl)-6-chloro-1H-benzo[d]imidazol-2-ylthio)acetic acid]",> 40%,
"O=C(O)CSc1nc2cc(-c3csc4ccccc34)c(Cl)cc2[nH]1 [Example 14, 2-(5-(benzo[b]-thiophen-3-yl)-6-chloro-1H-benzo[d]-imidazol-2-ylthio)-acetic acid]",> 40%,
"O=C(O)CSc1nc2cc(-c3ccc(-n4cccn4)cc3)c(Cl)cc2[nH]1 [Example 15, 2-(5-(4-(1H-pyrazol-1-yl)phenyl)-6-chloro-1H-benzo[d]imidazol-2-ylthio)acetic acid]",> 40%,
"O=C(O)CSc1nc2cc(-c3ccc(-c4ccn[nH]4)cc3)c(Cl)cc2[nH]1 [Example 16, 2-(5-(4-(1H-pyrazol-5-yl)phenyl)-6-chloro-1H-benzo[d]imidazol-2-ylthio)acetic acid]",> 40%,
"CC(=O)Nc1cccc(C#Cc2cc3nc(SCC(=O)O)[nH]c3cc2Cl)c1 [Example 17, 2-(5-((3-acetamido-phenyl)ethynyl)-6-chloro-1H-benzo[d]-imidazol-2-ylthio)-acetic acid]",> 40%,
